{"source": "ChEMBL document CHEMBL1135086"}
{"target": "Nitric oxide synthase 1 (Rattus norvegicus) (UniProt P29476)", "sequence (P29476 whole entry)": "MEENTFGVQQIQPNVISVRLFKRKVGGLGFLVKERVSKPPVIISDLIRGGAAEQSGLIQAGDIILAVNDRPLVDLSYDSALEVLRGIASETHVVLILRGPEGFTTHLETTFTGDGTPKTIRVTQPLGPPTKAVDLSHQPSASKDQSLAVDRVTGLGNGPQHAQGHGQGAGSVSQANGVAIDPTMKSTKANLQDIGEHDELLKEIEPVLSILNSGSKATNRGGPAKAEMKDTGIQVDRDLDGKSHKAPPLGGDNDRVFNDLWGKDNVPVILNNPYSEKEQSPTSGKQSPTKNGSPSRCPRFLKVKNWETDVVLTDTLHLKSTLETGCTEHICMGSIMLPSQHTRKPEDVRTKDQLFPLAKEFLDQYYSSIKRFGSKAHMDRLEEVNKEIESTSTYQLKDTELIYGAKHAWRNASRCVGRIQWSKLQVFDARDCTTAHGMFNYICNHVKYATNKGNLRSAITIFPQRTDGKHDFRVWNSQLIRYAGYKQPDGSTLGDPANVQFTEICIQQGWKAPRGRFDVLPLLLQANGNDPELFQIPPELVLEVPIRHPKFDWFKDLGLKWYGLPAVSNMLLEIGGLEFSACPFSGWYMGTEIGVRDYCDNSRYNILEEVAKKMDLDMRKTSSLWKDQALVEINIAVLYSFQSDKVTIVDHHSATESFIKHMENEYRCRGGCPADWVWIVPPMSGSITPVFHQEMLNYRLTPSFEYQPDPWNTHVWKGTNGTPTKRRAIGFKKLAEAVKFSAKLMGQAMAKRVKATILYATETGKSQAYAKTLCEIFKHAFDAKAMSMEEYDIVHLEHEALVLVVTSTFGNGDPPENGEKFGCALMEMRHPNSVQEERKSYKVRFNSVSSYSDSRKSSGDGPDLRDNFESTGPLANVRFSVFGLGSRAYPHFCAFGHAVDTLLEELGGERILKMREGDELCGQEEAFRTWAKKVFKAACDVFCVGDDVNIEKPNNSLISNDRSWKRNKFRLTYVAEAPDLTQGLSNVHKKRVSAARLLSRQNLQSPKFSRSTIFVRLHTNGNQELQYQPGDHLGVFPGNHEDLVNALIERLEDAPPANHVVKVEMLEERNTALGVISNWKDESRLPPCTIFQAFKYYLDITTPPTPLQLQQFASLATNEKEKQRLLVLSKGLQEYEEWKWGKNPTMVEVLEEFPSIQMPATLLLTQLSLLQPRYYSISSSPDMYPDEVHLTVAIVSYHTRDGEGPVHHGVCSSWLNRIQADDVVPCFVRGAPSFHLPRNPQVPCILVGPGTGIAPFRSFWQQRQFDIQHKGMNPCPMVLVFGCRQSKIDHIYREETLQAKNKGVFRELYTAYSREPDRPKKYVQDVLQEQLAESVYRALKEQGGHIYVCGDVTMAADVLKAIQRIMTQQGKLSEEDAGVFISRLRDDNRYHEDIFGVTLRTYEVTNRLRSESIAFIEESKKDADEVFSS", "experiment": "Effect on the activity of recombinant rat neuronal nitric oxide synthase as determined with radioactive L-arginine/L-citruline conversion assay", "set-up": "concentration or dose not given beside the values", "details": "concentration not given here", "units": {"inhibition": "%"}}
{"compound": "O=[N+]([O-])c1cccc(O)c1O", "inhibition": 94}
{"compound": "Cc1cc(O)c(O)cc1[N+](=O)[O-]", "inhibition": 35}
{"compound": "NCCc1cc(O)c(O)cc1[N+](=O)[O-]", "inhibition": 71}
{"compound": "O=[N+]([O-])c1ccc(O)c(O)c1", "inhibition": 33}
{"compound": "NCC(O)c1cc(O)c(O)cc1[N+](=O)[O-]", "note": "(stereo unspecified)", "inhibition": 78}
{"compound": "Cc1cc([N+](=O)[O-])cc(O)c1O", "inhibition": 28}
